Measurements: patent publication US11584722B2, “Substituted imidazole salt compounds, preparation method thereof, pharmaceutical composition thereof and application thereof” (Xiamen Vivohealths Technology Co., Ltd., priority 2017, dated 2023)

Biological target: T1, aldolase A (Homo sapiens, UniProt P04075)
T1 sequence (P04075 1-364): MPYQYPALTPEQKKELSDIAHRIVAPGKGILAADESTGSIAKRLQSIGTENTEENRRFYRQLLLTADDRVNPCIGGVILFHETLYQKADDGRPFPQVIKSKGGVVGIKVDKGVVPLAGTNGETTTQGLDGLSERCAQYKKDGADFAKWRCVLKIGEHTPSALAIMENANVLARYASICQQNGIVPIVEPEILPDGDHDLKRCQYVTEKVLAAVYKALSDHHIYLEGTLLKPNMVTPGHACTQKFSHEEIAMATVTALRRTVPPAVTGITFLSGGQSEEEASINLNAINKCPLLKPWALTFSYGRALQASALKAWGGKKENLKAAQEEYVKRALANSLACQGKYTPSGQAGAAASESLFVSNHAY
Assay: Activity assay at protein level: aldolase-catalyzed degradation of fructose-1,6-biphosphate, coupled triose phosphate isomerase/glycerol-3-phosphate dehydrogenase method
Assay type: biochemical
Details: test concentration of compound 100 μM, FBP 500 μM, 37° C., read-out: Inhibition rate (%) of aldolase activity
Description: The inhibition on aldolase activity of a compound was evaluated by its inhibition on the rate of aldolase-catalyzed degradation of the substrate fructose-1,6-biphosphate (FBP). Method for conjugation of triose phosphate isomerase/glycerol-3-phosphate dehydrogenase [Racker, E. (1952) J. Biol. Chem. 196, 347-351] was specifically used for biochemical activity assay (Table 3).
The specific method was as follows:
(1) About 250 ng of aldolase A was dissolved in 30 μL of water, added to the bottom of a 96-well plate of quartz, and a compound (dissolved in DMSO, not exceeding 1% of the total reaction volume) was added to the aldolase A solution, followed by shaking and mixing, and incubation for 30 min at room temperature; […]
(2) 70 μL of an enzyme reaction system (its formulation was given below) was added, and immediately put into a microplate reader (SpectraMax M5, Molecular Devices), to carry out reaction at 37° C. At the same time, the absorbance at 340 nm was measured every 30 s, and a total of 61 absorbance values were obtained for each well. The absorbance value linearly changed with time, and the slope was the enzyme activity of aldolase in the well. The specific value was calculated by SoftMax Pro 5.4.1; […]
a. enzyme reaction buffer (50 mM TEA-HCl, pH 7.4, 10 mM EDTA) […]
d. triose phosphate isomerase (about 20 U) e. glycerol-3-phosphate dehydrogenase (about 2 U)
(3) Two parallel experiments were set for each group, with DMSO having a final concentration of 1% as the blank control, and the final concentration of compound being 100 μM.

CCn1cc[n+](Cc2cc(F)ccc2OC)c1C [IA-6]
inhibition at 100 µM: 83.4%

CCn1cc[n+](Cc2c(Cl)cccc2Cl)c1C [IA-7]
inhibition at 100 µM: 88.4%

CCCn1cc[n+](Cc2cc(F)ccc2OC)c1C [IA-10]
inhibition at 100 µM: 0.06%

Cc1n(C(C)C)cc[n+]1Cc1c(Cl)cccc1Cl [IA-14]
inhibition at 100 µM: 5.06%

CCCCCCCCCCCCCCCCn1c(C)[n+](Cc2c(F)cccc2Cl)c2ccccc21 [IIA-1]
inhibition at 100 µM: 49.9%
